PMC12682947, “Identification of New KCNT1‐Epilepsy Drugs by In Silico, Cell, and Drosophila Modeling” (Annals of Neurology, 2025)
Counter-ions that a name gives are not always drawn. Like-named read-outs stand apart in the source and are kept apart here.

Biological target: T1, WT/Y796H KCNT1 channels (Homo sapiens, UniProt Q5JUK3, Y796H)
T1 construct: T2A self-cleaving motif ([…]) following the first subunit (C); expressed in transfected cells; host or cells: CHO cells
T1 sequence (Q5JUK3 1-1230): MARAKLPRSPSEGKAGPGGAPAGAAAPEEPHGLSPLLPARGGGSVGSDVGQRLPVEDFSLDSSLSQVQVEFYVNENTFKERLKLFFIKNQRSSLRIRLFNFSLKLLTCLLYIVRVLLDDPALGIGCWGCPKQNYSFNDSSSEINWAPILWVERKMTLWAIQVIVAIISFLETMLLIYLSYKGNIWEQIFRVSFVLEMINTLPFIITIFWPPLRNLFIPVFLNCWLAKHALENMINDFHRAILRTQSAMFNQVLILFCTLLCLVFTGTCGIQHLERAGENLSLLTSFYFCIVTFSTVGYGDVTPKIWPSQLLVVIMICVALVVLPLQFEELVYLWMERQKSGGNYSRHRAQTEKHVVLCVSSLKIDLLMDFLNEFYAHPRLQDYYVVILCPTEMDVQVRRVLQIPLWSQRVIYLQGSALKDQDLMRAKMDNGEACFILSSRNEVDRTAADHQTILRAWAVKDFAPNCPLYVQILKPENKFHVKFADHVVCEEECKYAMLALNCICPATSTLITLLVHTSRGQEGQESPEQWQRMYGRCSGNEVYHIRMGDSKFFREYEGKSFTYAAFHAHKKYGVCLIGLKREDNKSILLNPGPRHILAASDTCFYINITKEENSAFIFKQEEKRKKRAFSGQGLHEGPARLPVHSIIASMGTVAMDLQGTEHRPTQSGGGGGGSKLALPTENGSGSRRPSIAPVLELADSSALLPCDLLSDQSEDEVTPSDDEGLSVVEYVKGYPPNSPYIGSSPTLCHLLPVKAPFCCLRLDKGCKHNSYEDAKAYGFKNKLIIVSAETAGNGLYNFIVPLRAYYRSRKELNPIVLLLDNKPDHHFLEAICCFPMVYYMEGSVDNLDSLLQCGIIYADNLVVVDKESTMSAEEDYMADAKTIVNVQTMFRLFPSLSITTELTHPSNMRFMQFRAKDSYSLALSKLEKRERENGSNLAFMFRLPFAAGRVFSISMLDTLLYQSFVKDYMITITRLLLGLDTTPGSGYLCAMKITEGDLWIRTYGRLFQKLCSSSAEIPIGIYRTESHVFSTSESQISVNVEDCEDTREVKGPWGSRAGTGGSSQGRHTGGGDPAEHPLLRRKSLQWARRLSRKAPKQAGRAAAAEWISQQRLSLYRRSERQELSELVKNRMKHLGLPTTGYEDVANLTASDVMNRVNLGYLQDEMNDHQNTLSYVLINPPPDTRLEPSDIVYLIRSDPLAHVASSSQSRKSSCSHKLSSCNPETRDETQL
T1 sequence (Q5JUK3 2-1230 Y796H limits assumed): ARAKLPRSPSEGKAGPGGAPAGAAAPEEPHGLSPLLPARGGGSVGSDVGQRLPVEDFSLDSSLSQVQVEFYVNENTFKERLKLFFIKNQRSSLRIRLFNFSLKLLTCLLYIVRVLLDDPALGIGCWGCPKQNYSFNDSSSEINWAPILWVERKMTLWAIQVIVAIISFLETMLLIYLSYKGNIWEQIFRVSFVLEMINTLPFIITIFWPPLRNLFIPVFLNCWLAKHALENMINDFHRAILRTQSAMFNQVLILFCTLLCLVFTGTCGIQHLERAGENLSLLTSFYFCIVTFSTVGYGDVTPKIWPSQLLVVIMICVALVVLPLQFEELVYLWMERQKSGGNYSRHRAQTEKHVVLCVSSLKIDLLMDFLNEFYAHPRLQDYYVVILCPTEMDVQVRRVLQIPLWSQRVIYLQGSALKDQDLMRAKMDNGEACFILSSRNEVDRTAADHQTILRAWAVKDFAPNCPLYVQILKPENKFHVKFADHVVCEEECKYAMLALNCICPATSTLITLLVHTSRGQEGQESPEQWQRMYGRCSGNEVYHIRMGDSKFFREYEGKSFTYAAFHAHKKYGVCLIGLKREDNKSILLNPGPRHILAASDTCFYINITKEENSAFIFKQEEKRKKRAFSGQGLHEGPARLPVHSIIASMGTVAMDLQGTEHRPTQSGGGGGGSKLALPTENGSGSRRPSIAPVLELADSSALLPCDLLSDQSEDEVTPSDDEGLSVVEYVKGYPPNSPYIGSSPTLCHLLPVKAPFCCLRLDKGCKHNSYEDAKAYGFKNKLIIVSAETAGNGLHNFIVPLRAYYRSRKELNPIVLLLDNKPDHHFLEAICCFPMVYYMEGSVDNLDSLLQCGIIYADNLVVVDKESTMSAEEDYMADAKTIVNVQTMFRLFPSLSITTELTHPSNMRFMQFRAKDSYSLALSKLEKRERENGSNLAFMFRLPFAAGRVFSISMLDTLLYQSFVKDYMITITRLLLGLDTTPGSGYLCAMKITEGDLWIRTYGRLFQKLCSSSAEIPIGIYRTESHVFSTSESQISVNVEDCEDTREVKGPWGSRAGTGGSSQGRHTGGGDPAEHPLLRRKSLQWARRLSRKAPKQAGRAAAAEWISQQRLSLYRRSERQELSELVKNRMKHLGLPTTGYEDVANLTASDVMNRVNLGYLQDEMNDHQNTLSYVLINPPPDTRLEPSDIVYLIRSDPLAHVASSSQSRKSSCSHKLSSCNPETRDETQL
Assay: Whole-cell patch clamp of WT/Y796H KCNT1 channels expressed in CHO cells
Format: cell-based
Description: To replicate the heterozygous nature of KCNT1‐associated disorders and obtain channels comprising wild‐type (WT) and mutated subunits, a concatemeric approach was taken. To generate human KCNT1 concatemers, plasmids termed donor and recipient were generated from the pcDNA6‐KCNT1 construct used previously[16] and empty pcDNA6 V5/His6 vector (Invitrogen) using standard polymerase chain reaction (PCR) and cloning techniques. The insert of the donor construct comprised the KCNT1 coding sequence that lacked a start codon and preceded by bases encoding a […] linker. […] The recipient construct was generated by deleting the stop codon and introducing a unique XhoI site. Sequences containing disease mutation Y796H were subcloned into these constructs from a plasmid used previously.[16] All sequences generated by PCR were confirmed by Sanger sequencing (Genewiz, Takeley, UK). Finally, the concatemeric construct was generated by subcloning the XhoI/AgeI fragment from the donor plasmid, containing the in‐frame linker and complete subunit sequence into the same sites in the recipient plasmid. Recombination‐deficient competent Escherichia coli (E. coli) cells and 32°C incubation temperature were used to reduce the frequency of deletions between identical sequences in the plasmid, which was confirmed by restriction analysis. For other experiments, constructs with WT, G288S, R398Q, or R928C mutant forms of KCNT1 cDNA, tagged with YFP‐6His in the pCMV‐entry vectors, were described previously.[10]
The CHO cells were cultured in Dulbecco's modified Eagle's Medium (ThermoFisher, UK) supplemented with 10% (v/v) fetal bovine serum, 50 U/ml penicillin and 0.05 mg/ml streptomycin, and incubated at 37°C in 5% CO2 atmosphere. For whole cell recording of WT/Y796H KCNT1, CHO cells were transiently co‐transfected with concatemeric WT/Y796H and EYFP, as described previously.[29] For electrophysiological experiments, cells were plated onto borosilicate glass cover slips and used 2 to 4 days later. Human embryonic kidney 293T cells (HEK293T) were cultured in the same manner, but with medium supplemented with 2 mM L‐glutamine, and 1% (v/v) nonessential amino acids. For excised inside‐out recording of homomeric WT or mutant YFP‐tagged KCNT1, HEK293T cells plated on glass cover slips were transfected using Attractene Transfection Reagent (Qiagen, Germany) according to the manufacturer's instructions and used 2 to 3 days later.
Whole cell recordings from transiently transfected CHO cells were conducted at room temperature and analyzed as described previously.[29] The pipette (intracellular) solution contained, in mM, 100 K‐gluconate, 30 KCl, 10 Na‐gluconate, 29 glucose, 5 EGTA, and 10 HEPES, adjusted to pH 7.3 with KOH and the bath (extracellular) solution contained, in mM, 140 NaCl, 1 CaCl2, 5 KCl, 29 glucose, 10 HEPES, and 1 MgCl2, adjusted to pH 7.4 with NaOH. For current‐voltage and conductance‐voltage analysis of the concatemeric constructs, cells were held at −80 mV and 400 ms pulses were applied to voltages between −100 and 80 mV. Conductance values (G) with each voltage pulse (V) were obtained by dividing the peak steady‐state current by the driving force (command voltage minus the measured reversal potential). Conductance‐voltage data were fit by a Boltzmann function, G = (G max – G min)/(1 + e^(V‐V½)/k)) + G min, where G max and G min are the maximum and minimum conductance values, V ½ the half‐maximal activation voltage, and slope k. The liquid junction potential was calculated and was used to correct voltage values after data collection. Inhibition by drugs, which were obtained from commercial sources, was determined from currents evoked by 500 ms voltage ramps from −100 to 0 mV at 0.2 hertz (Hz) as described previously.[16] Initially, the drugs (10 mM in DMSO) were diluted to 10 μM in a bath solution and applied via gravity perfusion for 2 minutes, followed by at least a 2‐minute wash with drug‐free solution prior to addition of the next drug. […]

[1] = whole-cell patch clamp, CHO cells
[2] = whole-cell patch clamp, CHO cells, concentration-inhibition analysis, read-out: mean ± SEM IC50

Compound | IC50 | inhibition of WT/Y796H KCNT1 channels at 10 μM [1] | IC50 [2] | potency of concentration-dependent inhibition (in words) [1]
O=C(OCCN1CCN(c2cccc(C(F)(F)F)c2)CC1)c1ccccc1Nc1ccnc2cc(C(F)(F)F)ccc12 [antrafenine] | 1.3 ± 0.2 µM | inhibited | – | –
Cc1c(O)cccc1C(=O)N[C@@H](CSc1ccccc1)[C@H](O)CN1C[C@H]2CCCC[C@H]2C[C@H]1C(=O)NC(C)(C)C [nelfinavir mesylate] | – | inhibited | 2.86 ± 0.3 µM | –
CNC(=O)c1cc(Oc2ccc(NC(=O)Nc3ccc(Cl)c(C(F)(F)F)c3)c(F)c2)ccn1 [regorafenib] | – | inhibited | 10.3 ± 1.25 µM | –
CC(C)c1c(C(=O)Nc2ccccc2)c(-c2ccccc2)c(-c2ccc(F)cc2)n1CC[C@@H](O)C[C@@H](O)CC(=O)O [atorvastatin] | – | inhibited | 7.54 ± 0.99 µM | –
CCOc1nc2cccc(C(=O)OC(C)OC(=O)OC3CCCCC3)c2n1Cc1ccc(-c2ccccc2-c2nn[nH]n2)cc1 (stereo not shown) [Candesartan cilexetil, candesartan cilexetil] | – | – | – | much less potent
CC(C)(C)NC(=O)[C@@H]1CN(Cc2cccnc2)CCN1C[C@@H](O)C[C@@H](Cc1ccccc1)C(=O)N[C@H]1c2ccccc2C[C@H]1O [indinavir] | – | did not exhibit inhibition | – | –
CC(C)N1CCN(c2ccc(OCC3COC(Cn4cncn4)(c4ccc(Cl)cc4Cl)O3)cc2)CC1 (stereo not shown) [terconazole] | – | did not exhibit inhibition | – | –
CS(=O)(=O)c1cccc(C[C@H](NC(=O)c2c(Cl)cc3c(c2Cl)CCN(C(=O)c2ccc4ccoc4c2)C3)C(=O)O)c1 [lifitegrast] | – | did not exhibit inhibition | – | –
CC(C)[C@@H](C)/C=C/[C@@H](C)[C@H]1CC[C@H]2/C(=C/C=C3\C[C@@H](O)CC[C@@H]3C)CCC[C@]12C [dihydrotachysterol] | – | did not exhibit inhibition | – | –
